In paper PMC8379256, “A xanthene derivative, DS20060511, attenuates glucose intolerance by inducing skeletal muscle-specific GLUT4 translocation in mice” (Communications Biology, 2021):
Where “and” joins values, the source holds several entries; their conditions need not be identical. Identical values can stand only once. Like-named read-outs stand apart in the source and are kept apart here.

Tests used:
Format in all cases: in vivo, mouse
[1] = Pharmacokinetics: plasma concentration after oral administration; settings: for concentration at 0.5 hr / concentration at 1.25 hr / concentration at 2 hr / concentration at 4 hr / concentration at 6 hr: plasma, individual mice; for concentration at 0.5 hr: read-out: Conc. (µM) 0.5 hr; for concentration at 1.25 hr: read-out: Conc. (µM) 1.25 hr; for concentration at 2 hr: read-out: Conc. (µM) 2 hr; for concentration at 4 hr: read-out: Conc. (µM) 4 hr; for concentration at 6 hr: read-out: Conc. (µM) 6 hr; for maximal plasma concentration: at 30 min
Method: (§1) C57BL/6 mice that had been denied access to food overnight received the indicated oral dose of DS20060511, and blood samples were collected from the tail vein at the indicated timepoints. Plasma samples for quantitation of DS20060511 were prepared by centrifugation. Another group of mice received oral administration DS20060511 (30 mg kg^−1) and euthanized 75 min later. The soleus and gastrocnemius muscles, heart, and inguinal WAT were removed and homogenized in water (5 vol.) for quantitation of the drug concentrations. Plasma samples and tissue homogenates were analyzed by LC-MS/MS (Nexera MP System, SHIMADZU, Kyoto, Japan; API4000 System, SCIEX, Framingham, MA). The tissue concentrations of the compound were calculated by assuming the volume of 1 g of tissue is 1 mL. Evaluation of the metabolic stability of the compound to mouse and human cytochrome P450 (CYP) was conducted as follows. The test compound (1 μM) was incubated with pooled liver microsomes (0.1 mg mL^−1) in sodium phosphate buffer (100 mM, pH 7.4) at 37 °C with an NADPH generating system: β-nicotinamide adenine dinucleotide phosphate (β-NADP) 1 mM, D-glucose 6-phosphate (G-6-P) 10 mM, glucose 6-phosphate dehydrogenase (G-6-PDH) 1 U mL^−1, and magnesium chloride 3.3 mM. After 30 min incubation, the reaction was terminated by addition of acetonitrile and samples were analyzed by LC-MS/MS. The results were expressed as the amount of compound remaining (expressed as a percentage), based on the ratio of the relative area to that in the control (without reaction).

[2] = Tissue concentrations 75 min after oral administration; settings: for concentration at 75 min: 30 mg/kg, 30 mg/kg oral, individual mice
Method: as §1

[3] = system: wild-type and GLUT4KO mice; assay: Oral GTT in wild-type and GLUT4 knockout mice; settings: for Blood glucose / Plasma insulin: glucose tolerance test, DS20060511 30 mg/kg, individual animals, 30 mg/kg; for blood glucose and plasma insulin levels during oral GTT (in words): 30 mg kg−1 po
Method: Fig. 3 The glucose-lowering effect of DS20060511 is totally dependent on GLUT4. a Blood glucose and plasma insulin levels during oral GTT in wild-type (WT, n = 5) and GLUT4 knockout (KO, n = 6) mice. Mice received oral administration of vehicle or DS20060511 (30 mg kg^−1), 15 min prior to the glucose administration (1.5 g kg^−1). Values shown are means ± SEM. *P < 0.05, **P < 0.01 vs. vehicle by the t-test. b DS20060511-stimulated [^3H]-2-DG uptake in the isolated soleus and EDL muscles excised from WT (n = 6) and KO (n = 6) mice. Values shown are means ± SEM. **P < 0.01 vs. vehicle by the t-test.
C57BL/6 and db/db mice were purchased from CLEA Japan, Tokyo, Japan. GLUT4- knockout mice were generated at RIKEN BioResource Center, Tsukuba, Japan, according to a previously described method. eNOS-knockout mice were kindly provided by Dr. Masato Tsutsui[41],[42]. The mice were group-housed under controlled illumination (12:12 h light-dark cycle) and temperature (23 ± 2 °C) conditions and given free access to normal chow and water, unless otherwise specified. The HFD-fed obese mice were prepared by feeding C57BL/6 mice a HFD for at least 8 weeks from 6 weeks of age. […] Male mice were used for all the experiments in this study. The animal care and experimental procedures used in the study were approved by The University of Tokyo Animal Care Committee (Approval number: 27-3), and the study was carried out in accordance with the Animal Experimentation Guidelines of Daiichi Sankyo Co., Ltd (Approved number: 20000411).
Mice that had been denied access to food overnight received the indicated oral dose of DS20060511 or vehicle 15 min prior to the glucose load (1.5 g kg^−1, except for eNOS-knockout mice, which received 3.0 g kg^−1). Then, after the oral glucose load, the blood glucose levels were measured using Glutest Every in samples obtained from the tail vein at the indicated timepoints. Plasma insulin concentrations were also measured with an ELISA kit (Morinaga Institute of Biological Science, Yokohama, Japan) in blood samples collected from the tail vein at the indicated timepoints.

[4] = C57BL/6, mouse, po, 1 mg/kg, 1 mg/kg oral
[5] = C57BL/6, mouse, po, 30 mg/kg, 30 mg/kg oral

COc1ccc2c(C)c(C(=O)O)ccc2c1C1C2=C(CC(C)(C)CC2=O)OC2=C1C(=O)CC(C)(C)C2 [DS20060511]
concentration at 0.5 hr [1, 4]: 0.6 µM | concentration at 1.25 hr [1, 4]: 0.23 µM | concentration at 2 hr [1, 4]: 0 µM | concentration at 4 hr [1, 4]: 0 µM | concentration at 6 hr [1, 4]: 0 µM | concentration at 4 hr ([1]; C57BL/6, mouse, po, 10 mg/kg, 10 mg/kg oral): 1.2 µM | concentration at 0.5 hr [1, 5]: 77.7 µM | concentration at 1.25 hr [1, 5]: 49.6 µM | concentration at 2 hr [1, 5]: 35 µM | maximal plasma concentration ([1]; oral 1 mg kg−1, normal mice): 0.6 µM | maximal plasma concentration ([1]; oral 10 mg kg−1): 16.5 µM | maximal plasma concentration ([1]; oral 30 mg kg−1): 71.4 µM | concentration at 0.5 hr ([1]; 1 mg/kg oral, 1 mg/kg): 0.5 µM and 0.44 µM and 0.65 µM | concentration at 1.25 hr ([1]; 1 mg/kg oral, 1 mg/kg): 0.268 µM and 0.4 µM and 0.221 µM | concentration at 0.5 hr ([1]; 10 mg/kg oral, 10 mg/kg): 17.9 µM and 8.3 µM and 19.0 µM and 20.9 µM | concentration at 1.25 hr ([1]; 10 mg/kg oral, 10 mg/kg): 3.9 µM and 5.3 µM and 9.9 µM and 11.4 µM | concentration at 2 hr ([1]; 10 mg/kg oral, 10 mg/kg): 7.0 µM and 2.1 µM and 5.0 µM and 6.6 µM | concentration at 4 hr ([1]; 10 mg/kg oral, 10 mg/kg): 0.6 µM and 0.8 µM and 0.7 µM | concentration at 6 hr ([1]; 10 mg/kg oral, 10 mg/kg): 0.285 µM and 0.0 µM and 0.323 µM | concentration at 0.5 hr ([1]; 30 mg/kg oral, 30 mg/kg): 74.9 µM and 69.3 µM and 63.8 µM | concentration at 1.25 hr ([1]; 30 mg/kg oral, 30 mg/kg): 41.0 µM and 53.8 µM | concentration at 2 hr ([1]; 30 mg/kg oral, 30 mg/kg): 28.7 µM and 34.5 µM and 44.1 µM | concentration at 4 hr ([1]; 30 mg/kg oral, 30 mg/kg): 6.7 µM and 5.3 µM and 8.2 µM and 10.7 µM | concentration at 6 hr ([1]; 30 mg/kg oral, 30 mg/kg): 1.9 µM and 1.8 µM and 1.0 µM and 3.0 µM | concentration at 75 min ([2]; C57BL/6, mouse, gastrocnemius muscle, po, Gastro. muscle, read-out: Conc. (µM) Gastro.): 8 µM | concentration at 75 min ([2]; C57BL/6, mouse, heart, po, heart, read-out: Conc. (µM) Heart): 21.3 µM | concentration at 75 min ([2]; C57BL/6, mouse, inguinal WAT, po, WAT, read-out: Conc. (µM) WAT): 6.8 µM | concentration at 75 min ([2]; C57BL/6, mouse, soleus muscle, po, soleus, read-out: Conc. (µM) Soleus): 10.8 µM | concentration at 75 min ([2]; Gastro. muscle, read-out: Conc. (µM) Gastro.): 9.3 µM and 7.1 µM and 8.8 µM | concentration at 75 min ([2]; WAT, read-out: Conc. (µM) WAT): 5.9 µM and 5.0 µM and 4.1 µM | concentration at 75 min ([2]; heart, read-out: Conc. (µM) Heart): 21.0 µM and 19.6 µM and 18.0 µM | concentrations in tissues (in words) ([2]; skeletal muscle, WAT, heart, 75 min after oral 30 mg kg−1): almost comparable concentrations among the skeletal muscle, WAT, and heart | concentration at 75 min ([2]; soleus, read-out: Conc. (µM) Soleus): 13.8 µM and 9.8 µM and 11.1 µM | Blood glucose ([3]; GLUT4KO mice, 0 min): 151 mg/dL and 106 mg/dL and 203 mg/dL and 105 mg/dL and 130 mg/dL | Plasma insulin ([3]; GLUT4KO mice, 0 min): 0.11 ng/mL and 0.07 ng/mL and 0.16 ng/mL and 0.12 ng/mL and 0.18 ng/mL | Blood glucose ([3]; GLUT4KO mice, 15 min): 361 mg/dL and 352 mg/dL and 278 mg/dL and 400 mg/dL and 444 mg/dL | Plasma insulin ([3]; GLUT4KO mice, 15 min): 0.43 ng/mL and 0.42 ng/mL and 0.55 ng/mL and 0.33 ng/mL and 0.70 ng/mL and 0.59 ng/mL | Blood glucose ([3]; GLUT4KO mice, 30 min): 422 mg/dL and 387 mg/dL and 377 mg/dL and 384 mg/dL and 492 mg/dL and 513 mg/dL | Plasma insulin ([3]; GLUT4KO mice, 30 min): 0.34 ng/mL and 0.39 ng/mL and 0.25 ng/mL and 0.30 ng/mL and 0.28 ng/mL | Blood glucose ([3]; GLUT4KO mice, 60 min): 272 mg/dL and 266 mg/dL and 232 mg/dL and 390 mg/dL and 329 mg/dL and 389 mg/dL | Blood glucose ([3]; GLUT4KO mice, 90 min): 175 mg/dL and 168 mg/dL and 194 mg/dL and 265 mg/dL and 245 mg/dL and 275 mg/dL | Blood glucose ([3]; GLUT4KO mice, 120 min): 115 mg/dL and 112 mg/dL and 165 mg/dL and 193 mg/dL and 153 mg/dL and 190 mg/dL | Blood glucose ([3]; GLUT4KO mice, -15 min): 93 mg/dL and 75 mg/dL and 110 mg/dL and 49 mg/dL and 95 mg/dL and 89 mg/dL | Plasma insulin ([3]; GLUT4KO mice, -15 min): 0.06 ng/mL and 0.10 ng/mL and 0.11 ng/mL and 0.18 ng/mL and 0.13 ng/mL and 0.14 ng/mL | blood glucose and plasma insulin levels during oral GTT (in words) ([3]; GLUT4KO mice): completely abolished | Blood glucose ([3]; Wildtype mice, 0 min): 69 mg/dL and 44 mg/dL and 58 mg/dL and 62 mg/dL and 46 mg/dL | Plasma insulin ([3]; Wildtype mice, 0 min): 0.10 ng/mL and 0.02 ng/mL and 0.13 ng/mL and 0.14 ng/mL | Blood glucose ([3]; Wildtype mice, 15 min): 133 mg/dL and 103 mg/dL and 142 mg/dL and 181 mg/dL and 104 mg/dL | Plasma insulin ([3]; Wildtype mice, 15 min): 0.16 ng/mL and 0.14 ng/mL and 0.17 ng/mL and 0.18 ng/mL and 0.11 ng/mL | Blood glucose ([3]; Wildtype mice, 30 min): 124 mg/dL and 111 mg/dL and 100 mg/dL and 107 mg/dL | Plasma insulin ([3]; Wildtype mice, 30 min): 0.26 ng/mL and 0.10 ng/mL and 0.15 ng/mL | Blood glucose ([3]; Wildtype mice, 60 min): 92 mg/dL and 64 mg/dL and 99 mg/dL and 91 mg/dL and 76 mg/dL | Blood glucose ([3]; Wildtype mice, 90 min): 71 mg/dL and 61 mg/dL and 87 mg/dL and 88 mg/dL and 68 mg/dL | Blood glucose ([3]; Wildtype mice, 120 min): 74 mg/dL and 72 mg/dL and 70 mg/dL and 78 mg/dL and 82 mg/dL | Blood glucose ([3]; Wildtype mice, -15 min): 66 mg/dL and 39 mg/dL and 48 mg/dL and 81 mg/dL and 64 mg/dL | Plasma insulin ([3]; Wildtype mice, -15 min): 0.14 ng/mL and 0.18 ng/mL and 0.11 ng/mL | blood glucose and plasma insulin levels during oral GTT (in words) ([3]; wild-type (WT) mice): significant decrease of the blood glucose and plasma insulin levels
